Values of other authors in patent US6919335B2, “Heterocycles that are inhibitors of IMPDH enzyme” (Bristol-Myers Squibb Co., priority 2000, dated 2005).
Where two headings read alike, the source gives them in different places.

Tests used:
IMPDH types I and II = conditions: RT-PCR, low and high concentrations, alone or both
[1] = test system: proinflammatory cytokines (IL-2, IL-4, and IFN); conditions: RT-PCR; Rol 10^−7 M, MPA 10^−8 M, or the combination
[2] = test system: antigen-specific T lymphocyte responses; conditions: for approximate IC10: inhibition of antigen-induced proliferation; for synergistic effect on inhibition of antigen-induced proliferation: in combination with Rol 10^−7 M; for % inhibition of proliferation: Rol plus MPA

Compound | gene expression for IMPDH types I and II (IMPDH types I and II) | downregulation in the generation of proinflammatory cytokines [1] | approximate IC10 [2] | synergistic effect on inhibition of antigen-induced proliferation [2] | % inhibition of proliferation ([2]; with deoxyguanosine (antagonist of MPA on IMPDH), p<0.05) [%] | % inhibition of proliferation ([2]; without deoxyguanosine) [%]
COc1ccc(C2CNC(=O)C2)cc1OC1CCCC1 (stereo not shown) [rolipram, 4-[3-(cyclopentyloxy)-4-methoxy-phenyl]-2-pyrrolidinone] | remained unaffected | no significant downregulation | ~10^−7 M | – | – | –
C=CC[C@@H]1/C=C(\C)C[C@H](C)C[C@H](OC)[C@H]2O[C@@](O)(C(=O)C(=O)N3CCCC[C@H]3C(=O)O[C@H](/C(C)=C/[C@@H]3CC[C@@H](O)[C@H](OC)C3)[C@H](C)[C@@H](O)CC1=O)[C@H](C)C[C@@H]2OC [tacrolimus] | – | – | – | little or no synergistic effect | – | –
CCCC(=O)Nc1ncnc2c1ncn2[C@@H]1O[C@@H]2COP(=O)(O)O[C@H]2[C@H]1OC(=O)CCC [dibuteryl-cAMP] | – | – | ~2e-06 M | – | – | –
COc1c(C)c2c(c(O)c1C/C=C(\C)CCC(=O)O)C(=O)OC2 [MPA, mycophenolic acid] | remained unaffected | no significant downregulation | – | marked synergistic effect | 35±12 | 81±16
